{"source": "patent US20250169496A1", "about": "“USE OF 2-AMINO-3-HYDROXY-3-METHYLBUTYRIC ACID AND/OR 2-AMINO-3-(4-HYDROXYPHENYL) BUTYRIC ACID” (NANJING TIANNONG BIOTECHNOLOGY CO., LTD., priority 2021, published 2025)", "key": {"[1]": {"system": "ryegrass under high-temperature stress", "assay": "Ryegrass under high-temperature stress", "format": "in vivo", "conditions": "for PIABS (photosynthetic performance index): ryegrass after 45° C. for 12 h; for Heat damage index: 45° C. 12 h, recovered 7 d", "procedure": "Set 4 groups for each concentration and meanwhile set a room-temperature blank control. Weigh 0.8 g of ryegrass seeds per bowl, sow them in bowls with a diameter of 8.5 cm, and grow in a greenhouse at 25° C., RH 60%-70% and luminous intensity of 200 μmol m^−2s^−1(12 h illumination/12 h darkness). Start treatment after ryegrass has grown for 7 dby the method of spraying a 2-amino-3-(4-hydroxyphenyl) butyric acid solution on the leaf surface twice in 24 h.24 h after the second treatment, transfer them to an illumination incubator of 45° C. for high-temperature stress treatment, and after 12 h, conduct dark treatment at room temperature for 30 min, then determine the chlorophyll fluorescence of […] leaves by plant efficiency Handy-PEA, then transfer the plants to a 25° C. greenhouse and recover them for 7 d, observe and calculate the damage condition of the plants and calculate the heat damage levels. The heat damage grading standard is shown in Table 9 and the heat damage calculation formula is as follows."}, "rat brain glial cells": {"system": "rat brain glial cells", "conditions": "concentration of 10μgmL^−1; cited from earlier work"}, "[2]": {"system": "Arabidopsis under high-temperature stress", "assay": "Arabidopsis under high-temperature stress", "format": "in vivo", "conditions": "for PIABS (photosynthetic performance index): Arabidopsis after 45° C. for 12 h; for Heat damage index: 45° C. 12 h, recovered 7 d", "procedure": "Take 2-amino-3-hydroxy-3-methylbutyric acid, dissolve it with distilled water, then dilute the solution with distilled water by gradient into 10 nM, 100 nM, 1,000 nM and 10,000 nM solutions, set a blank control, and meanwhile add 0.02% Tween 20 as a surfactant. Set 4 groups for each concentration and meanwhile set a room-temperature blank control. Sow about 50 Arabidopsis seeds in each bowl with a diameter of 8.5 cm, and grow in a greenhouse at 25° C., RH 60%-70% and luminous intensity of 200 μmol m^−2s^−1(16 h illumination/8 h darkness). Start treatment in 21 d of the Arabidopsis seedling stage by the method of spraying a 2-amino-3-hydroxy-3-methylbutyric acid solution on the leaf surface twice in 24 h. 24 h after the second treatment, transfer them to an illumination incubator of 45° C. for high-temperature stress treatment, and after 12 h, conduct dark treatment at room temperature for 30 min, then determine the chlorophyll fluorescence of Arabidopsis leaves by plant efficiency Handy-PEA, then transfer the plants to a 25° C. greenhouse and recover them for 7 d, observe and calculate the damage condition of the plants and calculate the heat damage levels. The heat damage grading standard is shown in Table 9 and the heat damage index calculation formula is as follows."}, "[3]": {"conditions": "10,000 nM (so in the source), ryegrass, high-temperature stress, vs 0 nM"}, "[4]": {"conditions": "10,000 nM, Arabidopsis, high-temperature stress, vs 0 nM"}}, "data": [{"smiles": "CC(c1ccc(O)cc1)C(N)C(=O)O", "note": "(stereo not drawn) [2-amino-3-(4-hydroxyphenyl) butyric acid]", "values": [{"measurement": "PIABS (photosynthetic performance index)", "setting": "[1]; 1 nM", "value": "0.78 ± 0.23", "unit": "bc"}, {"measurement": "Heat damage index", "setting": "[1]; 1 nM, ryegrass", "value": 81, "unit": "%"}, {"measurement": "PIABS (photosynthetic performance index)", "setting": "[1]; 10 nM", "value": "0.95 ± 0.41", "unit": "bc"}, {"measurement": "Heat damage index", "setting": "[1]; 10 nM, ryegrass", "value": 66.67, "unit": "%"}, {"measurement": "PIABS (photosynthetic performance index)", "setting": "[1]; 100 nM", "value": "1.50 ± 0.54", "unit": "b"}, {"measurement": "Heat damage index", "setting": "[1]; 100 nM, ryegrass", "value": 55, "unit": "%"}, {"measurement": "PIABS (photosynthetic performance index)", "setting": "[1]; 1,000 nM", "value": "2.61 ± 1.05", "unit": "ab"}, {"measurement": "Heat damage index", "setting": "[1]; 1,000 nM, ryegrass", "value": 35, "unit": "%"}, {"measurement": "Decrease of heat damage index", "setting": "[1]; [3]", "value": 55, "unit": "%"}, {"measurement": "Increase of PIABS", "setting": "[1]; [3]", "value": 366, "unit": "%"}]}, {"smiles": "CC(C)(O)C(N)C(=O)O", "note": "(stereo not drawn) [2-amino-3-hydroxy-3-methylbutyric acid]", "values": [{"measurement": "Toxicity to rat brain glial cells", "setting": "rat brain glial cells", "value": "weakly toxic"}, {"measurement": "PIABS (photosynthetic performance index)", "setting": "[2]; 10 nM", "value": "10.60 ± 0.32", "unit": "c"}, {"measurement": "Heat damage index", "setting": "[2]; 10 nM, Arabidopsis", "value": 60, "unit": "%"}, {"measurement": "PIABS (photosynthetic performance index)", "setting": "[2]; 100 nM", "value": "11.27 ± 0.89", "unit": "c"}, {"measurement": "Heat damage index", "setting": "[2]; 100 nM, Arabidopsis", "value": 45, "unit": "%"}, {"measurement": "PIABS (photosynthetic performance index)", "setting": "[2]; 1,000 nM", "value": "13.61 ± 0.38", "unit": "b"}, {"measurement": "Heat damage index", "setting": "[2]; 1,000 nM, Arabidopsis", "value": 20, "unit": "%"}, {"measurement": "PIABS (photosynthetic performance index)", "setting": "[2]; 10,000 nM", "value": "15.60 ± 0.78", "unit": "ab"}, {"measurement": "Heat damage index", "setting": "[2]; 10,000 nM, Arabidopsis", "value": 15, "unit": "%"}, {"measurement": "Decrease of heat damage index", "setting": "[2]; [4]", "value": 65, "unit": "%"}, {"measurement": "Increase of PIABS", "setting": "[2]; [4]", "value": 106, "unit": "%"}]}]}
